Test results as given in ChEMBL document CHEMBL3856245, “New labdane diterpenoids from Croton laui and their anti-inflammatory activities” (Bioorg Med Chem Lett, 2016).
pIC50: −log10 of the molar value.

Key:
[1] = tested on: RAW264.7; experiment: Selectivity index, ratio of CC50 for mouse RAW264.7 cells to antiinflammatory IC50 for mouse RAW264.7 cells; assay type: functional
[2] = Cytotoxicity against mouse RAW264.7 cells assessed as reduction in cell viability after 48 hrs by MTT assay; assay type: toxicity
[3] = Antiinflammatory activity in mouse RAW264.7 cells assessed as inhibition of LPS-induced NO production after 24 hrs in presence of LPS by Griess reagent based assay; assay type: functional, cell-based; settings: RAW264.7, 24 h

SMILES | pIC50 [3] | Ratio CC50/IC50 [1] | CC50 at 48 h [2] [µM]
CC1=CC(=O)O[C@@]12C[C@@H]1[C@@]3(C)CCCC(C)(C)[C@@H]3C[C@H](O)[C@@]1(C)O2 | 4.35 | >2.2 | > 100
CC1=CC(=O)O[C@]12C[C@@H]1[C@@]3(C)CCCC(C)(C)[C@@H]3C[C@H](O)[C@@]1(C)O2 | 4.30 | >2 | > 100
COc1ccc2c(c1)c(CC(=O)O)c(C)n2C(=O)c1ccc(Cl)cc1 [INDOMETHACIN] | 4.78 | >12.1 | > 200

More lines, main results first:

pIC50 [3] | SMILES | Ratio CC50/IC50 [1] | CC50 at 48 h [2] [µM]
4.03 | C/C(C=O)=C\C[C@H]1[C@](C)(O)[C@@H](O)C[C@H]2C(C)(C)CCC[C@@]21C | >1.1 | > 100
4.37 | C/C(=C\CO)[C@H]1C[C@@H]2[C@@]3(C)CCCC(C)(C)[C@@H]3C[C@H](O)[C@@]2(C)O1 | >2.3 | > 100
4.31 | C=C/C(C)=C/C[C@H]1[C@](C)(O)[C@@H](O)C[C@H]2C(C)(C)CCC[C@@]21C | 1.9 | 94.5
